ChEMBL document CHEMBL5036328, “Nonpeptidic, Polo-Box Domain-Targeted Inhibitors of PLK1 Block Kinase Activity, Induce Its Degradation and Target-Resistant Cells” (J Med Chem, 2021)
Calls of active or inactive are those of the source. No cut-off for these calls is given here.

Columns and labels:
[1] = target: T1, Serine/threonine-protein kinase PLK1 (Homo sapiens, UniProt P53350); test: Binding affinity to […] (unknown origin) using MAGPMQS[pT]PLNGAKK tracer peptide as substrate by fluorescence polarization binding assay
[2] = system: PC-3; test: Antiproliferative activity against human PC-3 cells assessed as reduction in cell viability incubated for 72 hrs by MTT assay; type: functional, cell-based; conditions: PC-3, 72 h
[3] = system: HeLa; test: Antiproliferative activity against human HeLa cells assessed as reduction in cell viability incubated for 72 hrs by MTT assay; type: functional, cell-based
[4] = target: T1, Serine/threonine-protein kinase PLK1; test: Induction of PLK1 degradation in human PC-3 cells measured for 23 hrs by Western blot analysis; type: cell-based
[5] = target: T1, Serine/threonine-protein kinase PLK1; test: Induction of PLK1 degradation in human PC-3 cells at 10 uM measured for 23 hrs by Western blot analysis relative to control; type: cell-based
[6] = target: T1, Serine/threonine-protein kinase PLK1; test: Inhibition of PLK1 in human PC-3 cells assessed as reduction in phosphorylation of TCTP at ser46 measured after 23 hrs by immunoblotting analysis; type: cell-based
[7] = target: T1, Serine/threonine-protein kinase PLK1; test: Binding affinity to PLK1 in human PC-3 cells incubated for 2 hrs followed by heat shock for 10 mins by cellular thermal shift assay; type: cell-based
[8] = target: T1, Serine/threonine-protein kinase PLK1; test: Inhibition of PLK1 in human PC-3 cells assessed as reduction in phosphorylation of TCTP at ser46 measured after 23 hrs in presence of colcemid by immunoblotting analysis; type: cell-based
[9] = target: T1, Serine/threonine-protein kinase PLK1; test: Induction of PLK1 degradation in human PC-3 cells at 45 uM measured for 23 hrs by Western blot analysis relative to control; type: cell-based
[10] = target: T1, Serine/threonine-protein kinase PLK1; test: Induction of PLK1 degradation in human PC-3 cells at 10 uM pretreated with proteosome inhibitor MG132 for 1 hr followed by compound addition and measured after 23 hrs by Western blot analysis relative to control; type: cell-based; parameters: scale not given: the % may be the effect or the level left
[11] = system: PC-3; test: Induction of cell cycle arrest in human PC-3 cells at 10 to 45 uM incubated for 23 hrs by flow cytometry analysis; type: functional, cell-based; conditions: dose 10-45 µM
[12] = system: PC-3; test: Induction of cell cycle arrest in human PC-3 cells assessed as reduction in G2/M phase at 45 uM incubated for 23 hrs in presence of colcemid by flow cytometry analysis (reference value: 67%); type: functional; parameters: scale not given: the % may be the effect or the level left
[13] = target: T1, Serine/threonine-protein kinase PLK1; test: Induction of PLK1 degradation in human PC-3 cells at 30 uM measured for 23 hrs by Western blot analysis relative to control; type: cell-based
[14] = target: T1, Serine/threonine-protein kinase PLK1; test: Induction of PLK1 degradation in human DU-145 cells measured for 23 hrs by Western blot analysis; type: cell-based; conditions: dose 10-45 µM
[15] = target: T1, Serine/threonine-protein kinase PLK1; test: Induction of PLK1 degradation in human PC-3 cells at 30 uM pretreated with proteosome inhibitor MG132 for 1 hr followed by compound addition and measured after 23 hrs by Western blot analysis relative to control; type: cell-based; parameters: scale not given: the % may be the effect or the level left
[16] = target: T1, Serine/threonine-protein kinase PLK1; test: Induction of PLK1 degradation in human PC-3 cells measured after 23 hrs in presence of colcemid by Western blot analysis; type: cell-based; conditions: dose 10-45 µM
[17] = target: T1, Serine/threonine-protein kinase PLK1; test: Induction of PLK1 degradation in human PC-3 cells at 45 uM pretreated with proteosome inhibitor MG132 for 1 hr followed by compound addition and measured after 23 hrs by Western blot analysis relative to control; type: cell-based; parameters: scale not given: the % may be the effect or the level left
[18] = system: PC-3; test: Induction of cell cycle arrest in human PC-3 cells at 60 uM incubated for 23 hrs in presence of colcemid by flow cytometry analysis; type: functional, cell-based
[19] = target: T1, Serine/threonine-protein kinase PLK1; test: Induction of PLK1 degradation in human PC-3 cells upto 60 uM measured after 23 hrs by Western blot analysis; type: cell-based; conditions: dose microM <=60, time 23.0 hrs
[20] = system: HRPE; test: Antiproliferative activity against human RPE cells expressing C67V mutant PLK1 assessed as reduction in cell viability upto 120 uM after 72 hrs by MTT assay; type: functional, cell-based
[21] = system: HRPE; test: Antiproliferative activity against human RPE cells expressing wild type PLK1 assessed as reduction in cell viability upto 120 uM after 72 hrs by MTT assay; type: functional, cell-based
[22] = system: HRPE; test: Antiproliferative activity against human RPE cells expressing wild-type PLK1 assessed as reduction in cell viability after 72 hrs by MTT assay; type: functional, cell-based
[23] = system: HRPE; test: Antiproliferative activity against human RPE cells expressing C67V mutant PLK1 assessed as reduction in cell viability after 72 hrs by MTT assay; type: functional, cell-based

T1 sequence (P53350 whole entry): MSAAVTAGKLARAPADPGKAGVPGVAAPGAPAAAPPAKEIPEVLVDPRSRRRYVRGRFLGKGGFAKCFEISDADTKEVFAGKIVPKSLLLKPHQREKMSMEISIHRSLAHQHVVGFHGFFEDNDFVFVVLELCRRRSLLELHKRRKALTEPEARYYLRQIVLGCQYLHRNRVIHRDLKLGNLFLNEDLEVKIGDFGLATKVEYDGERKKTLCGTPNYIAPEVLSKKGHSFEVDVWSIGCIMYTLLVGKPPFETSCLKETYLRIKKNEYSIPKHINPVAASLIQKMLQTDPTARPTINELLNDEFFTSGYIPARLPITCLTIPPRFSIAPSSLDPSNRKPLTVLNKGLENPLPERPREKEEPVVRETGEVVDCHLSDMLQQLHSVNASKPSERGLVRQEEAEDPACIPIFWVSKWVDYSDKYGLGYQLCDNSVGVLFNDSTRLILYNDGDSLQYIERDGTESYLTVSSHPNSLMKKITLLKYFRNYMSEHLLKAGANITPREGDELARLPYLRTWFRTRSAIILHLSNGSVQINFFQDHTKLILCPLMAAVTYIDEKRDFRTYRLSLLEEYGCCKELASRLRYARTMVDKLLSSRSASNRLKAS

Row | SMILES | IC50 [1] [µM] | IC50 [2] [µM] | IC50 [3] [µM] | further results
1 | CCCCCCCCOc1ccc(C(=O)Nc2ccc(C)cc2C(=O)O)cc1 | 28.6 | 21.8 | – | –
2 | CCCCCCCCOc1ccc(C(=O)Nc2cc(C)ccc2C(=O)O)cc1 | 29.8 | – | 19.3 | –
3 | Cc1ccc(C(=O)O)c(NC(=O)c2ccc(N)cc2)c1 | > 600 | > 120 | > 120 | –
4 | CCCCCCCCCc1ccc(C(=O)Nc2cc(C)ccc2C(=O)O)cc1 | 28 | 18.2 | – | –
5 | CCCCCCCCSc1ccc(C(=O)Nc2cc(C)ccc2C(=O)O)cc1 | 28.1 | 26 | – | –
6 | CCCCCCCCNc1ccc(C(=O)Nc2cc(C)ccc2C(=O)O)cc1 | 27.1 | 20 | – | –
7 | CCCCCCCCCc1ccc(C(=O)Nc2ccc(C)cc2C(=O)O)cc1 | 33.8 | 30 | 21.6 | –
8 | CCCCCCCCCCCCc1ccc(C(=O)Nc2cc(C)ccc2C(=O)O)cc1 | 25.5 | 17 | – | –
9 | CCCCCCCOc1ccc(C(=O)Nc2ccccc2C(=O)O)cc1 | 37 | 30 | – | –
10 | CCCCCCCCSc1ccc(C(=O)Nc2ccc(C)cc2C(=O)O)cc1 | 26.8 | 15 | 12 | Activity [4]: Dose-Dependent Effect; Activity [5]: 30%; inhibition [6]: Active; EC50 [7]: 0.65 µM; inhibition [8]: Active; Activity [9]: 7%; Activity [10]: 64%; Activity [11]: inactive; Activity [12]: 20%; Activity [13]: 5%; Activity [14]: Dose-Dependent Effect; Activity [15]: 25%; Activity [16]: Dose-Dependent Effect; Activity [17]: 16%
11 | CCCCCCCCNc1ccc(C(=O)Nc2ccc(C)cc2C(=O)O)cc1 | 73.2 | 36.4 | – | –
12 | CCCCCCCCCCc1ccc(C(=O)Nc2ccc(C)cc2C(=O)O)cc1 | 23.8 | 22.8 | 15.5 | –
13 | CCCCCCCNc1ccc(C(=O)Nc2ccccc2C(=O)O)cc1 | 87.4 | 41.3 | – | –
14 | CCCCCCCCc1ccc(C(=O)Nc2ccc(C(F)(F)F)cc2C(=O)O)cc1 | – | 14.2 | 10.5 | –
15 | CCCCCCCCCc1ccc(C(=O)Nc2cc(C)ccc2C(=O)OC)cc1 | > 600 | > 120 | > 120 | Activity [18]: inactive; Activity ([7]; time 130.0 min): inactive; inhibition [8]: inactive; Activity [19]: inactive; Activity [20]: inactive; Activity [21]: inactive
16 | CCCCCCCNc1ccc(C(=O)Nc2ccc(C)cc2C(=O)O)cc1 | 42 | 31.3 | 18.7 | –
17 | CCCCCCCSc1ccc(C(=O)Nc2ccccc2C(=O)O)cc1 | 29 | 27.9 | – | –
18 | CCCCCCCSc1ccc(C(=O)Nc2ccc(C)cc2C(=O)O)cc1 | 23.4 | 14.3 | 9.4 | Activity [22]: Active; Activity [23]: Active
19 | CCCCCCCOc1ccc(C(=O)Nc2ccc(C)cc2C(=O)O)cc1 | 34.4 | 43 | 31.3 | –
20 | CCCCCCCCCCCCc1ccc(C(=O)Nc2ccc(C)cc2C(=O)O)cc1 | 26.1 | 16.5 | 10.7 | Activity [22]: Active; Activity [23]: Active
21 | CCCCCCCCCc1ccc(C(=O)Nc2ccc(C)cc2C(=O)OC)cc1 | > 600 | – | – | –
